IC50 data for 26 compounds are collected here from patent US20070249670A1, “Glycogen Phosphorylase Inhibitor Compounds and Pharmaceutical Compositions Thereof” (SMITHKLINE BEECHAM CORPORATION, priority 2004, published 2007).

The IC50 is the concentration that inhibits the measured activity by half.

The assay concerns the target T1, human liver glycogen phosphorylase a (HLGPa) (Homo sapiens, UniProt P06737).
T1 construct: creating a full-length cDNA fused at the 5′ end to codons for methionine-glycine-alanine-histidine; 6xHis tag (leader Met-Gly-Ala-His6-Gly-Gly) (N); made in house; host or cells: E. coli (bacterial expression plasmid pTXK1007LTev)
T1 sequence (P06737 2-847 limits assumed): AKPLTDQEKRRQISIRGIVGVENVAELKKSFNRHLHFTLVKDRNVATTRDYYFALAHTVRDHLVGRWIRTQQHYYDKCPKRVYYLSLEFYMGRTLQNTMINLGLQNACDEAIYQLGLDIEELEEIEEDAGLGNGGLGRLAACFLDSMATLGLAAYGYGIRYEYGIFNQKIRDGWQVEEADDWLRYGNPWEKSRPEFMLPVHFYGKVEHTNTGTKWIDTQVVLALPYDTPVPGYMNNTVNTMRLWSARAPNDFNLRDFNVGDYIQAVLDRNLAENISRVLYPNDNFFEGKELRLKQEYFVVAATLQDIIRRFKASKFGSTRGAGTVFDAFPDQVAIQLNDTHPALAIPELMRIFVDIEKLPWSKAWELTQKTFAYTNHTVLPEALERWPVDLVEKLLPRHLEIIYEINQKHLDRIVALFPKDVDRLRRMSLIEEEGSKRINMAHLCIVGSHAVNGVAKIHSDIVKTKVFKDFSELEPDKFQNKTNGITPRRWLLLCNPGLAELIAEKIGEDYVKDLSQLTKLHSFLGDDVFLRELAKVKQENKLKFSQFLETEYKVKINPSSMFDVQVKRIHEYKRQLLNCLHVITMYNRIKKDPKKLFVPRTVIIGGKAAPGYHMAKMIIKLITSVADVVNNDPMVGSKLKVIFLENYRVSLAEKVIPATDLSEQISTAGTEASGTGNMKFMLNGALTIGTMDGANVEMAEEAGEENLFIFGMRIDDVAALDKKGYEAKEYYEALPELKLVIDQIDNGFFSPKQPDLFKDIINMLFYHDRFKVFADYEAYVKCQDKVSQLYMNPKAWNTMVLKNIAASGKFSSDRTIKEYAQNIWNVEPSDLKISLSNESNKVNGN
Nature of the assay: Human liver glycogen phosphorylase a enzymatic activity assay (coupled, fluorescent resorufin readout, with and without 10 mM glucose). The class given is biochemical. The following applies: human liver glycogen phosphorylase a; table does not say whether with or without 10 mM glucose.

`O=C(Nc1c(Cl)cccc1Cl)Nc1c(C(=O)N[C@H](C(=O)O)C2CCCCC2)oc2cc(Br)ccc12` [Example 327, (2S)-({[6-Bromo-3-({[(2,6-dichlorophenyl)amino]carbonyl}amino)-1-benzofuran-2-yl]carbonyl}amino)(cyclohexyl)ethanoic acid] registered an IC50 of 9870 nM.
As for `Cc1cc(C)c(NC(=O)Nc2cc3ccccc3cc2C(=O)NCC2CCCCC2)c(C)c1` [Example 330, N-(cyclohexylmethyl)-3-({[(2,4,6-trimethylphenyl)amino]carbonyl}amino)-2-naphthalenecarboxamide], the figure is 14400 nM; as for `O=C(O)CCN(Cc1ccccc1)C(=O)c1cc2ccccc2cc1NC(=O)Nc1c(Cl)cccc1Cl` [Example 331, N-{[3-({[(2,6-dichlorophenyl)amino]carbonyl}amino)-2-naphthalenyl]carbonyl}-N-(phenylmethyl)-beta-alanine], 2180 nM; as for `O=C(O)CN(Cc1ccccc1)C(=O)c1cc2ccccc2cc1NC(=O)Nc1c(Cl)cc(Cl)cc1Cl` [Example 332, N-(phenylmethyl)-N-{[3-({[(2,4,6-trichlorophenyl)amino]carbonyl}amino)-2-naphthalenyl]carbonyl}glycine], 4350 nM.
As for `O=C(Nc1cc2ccccc2cc1C(=O)N1CCCC(C(=O)O)C1)Nc1c(Cl)cccc1Cl` (centres unmarked) [Example 333, 1-{[3-({[(2,6-Dichlorophenyl)amino]carbonyl}amino)-2-naphthalenyl]carbonyl}-3-piperidinecarboxylic acid], the figure is 9270 nM; as for `Cc1cccc(C)c1NC(=O)Nc1cc2ccccc2cc1C(=O)N1CCC[C@H]1C(=O)O` [Example 334, 1-{[3-({[(2,6-dimethylphenyl)amino]carbonyl}amino)-2-naphthalenyl]carbonyl}-L-proline], 420 nM.
`Cc1cc(C)c(NC(=O)Nc2cc3ccccc3cc2C(=O)N[C@H](CC(=O)O)c2ccccc2)c(C)c1` [Example 336, (3R)-3-phenyl-3-({[3-({[(2,4,6-trimethylphenyl)amino]carbonyl}amino)-2-naphthalenyl]carbonyl}amino)propanoic acid] displayed an IC50 of 610 nM.
For `Cc1cc(C)c(NC(=O)Nc2cc3ccccc3cc2C(=O)N[C@H](CC(=O)OC(C)(C)C)C2CCCCC2)c(C)c1` [Example 337, 1,1-dimethylethyl (3R)-3-cyclohexyl-3-({[3-({[(2,4,6-trimethylphenyl)amino]carbonyl}amino)-2-naphthalenyl]carbonyl}amino)propanoate] the value was 5260 nM; for `Cc1cc(C)c(NC(=O)Nc2cc3ccccc3cc2C(=O)N[C@H](CC(=O)O)C2CCCCC2)c(C)c1` [Example 338, (3R)-3-cyclohexyl-3-({[3-({[(2,4,6-trimethylphenyl)amino]carbonyl}amino)-2-naphthalenyl]carbonyl}amino)propanoic acid], 2130 nM; for `Cc1cc(C)c(NC(=O)Nc2cc3ccccc3cc2C(=O)N[C@H](CC(=O)O)C(C)C)c(C)c1` [Example 339, (3R)-4-methyl-3-({[3-({[(2,4,6-trimethylphenyl)amino]carbonyl}amino)-2-naphthalenyl]carbonyl}amino)pentanoic acid], 1560 nM.
For `Cc1cc(C)c(NC(=O)Nc2cc3ccccc3cc2C(=O)N[C@H](c2nnn[nH]2)C(C)C)c(C)c1` [Example 340, N-[(1S)-2-methyl-1-(1H-tetrazol-5-yl)propyl]-3-({[(2,4,6-trimethylphenyl)amino]carbonyl}amino)-2-naphthalenecarboxamide] the value was 340 nM; for `Cc1cc(C)c(NC(=O)Nc2cc3ccccc3cc2C(=O)N[C@H](C#N)C2CCC(F)(F)CC2)c(C)c1` [Example 342, N—[(S)-cyano(4,4-difluorocyclohexyl)methyl]-3-({[(2,4,6-trimethylphenyl)amino]carbonyl}amino)-2-naphthalenecarboxamide], 8600 nM.
For `O=C(Nc1cc2ccccc2cc1C(=O)N[C@H](C(=O)O)C1CCCC1)Nc1c(Cl)cc(Cl)cc1Cl` [Example 343, (2S)-cyclopentyl({[3-({[(2,4,6-trichlorophenyl)amino]carbonyl}amino)-2-naphthalenyl]carbonyl}amino)ethanoic acid], the IC50 was 130 nM.
`Cc1cc(C)c(NC(=O)Nc2cc3ccccc3cc2C(=O)N[C@@H](CC(=O)OC(C)(C)C)C(=O)OC(C)(C)C)c(C)c1` [Example 353, bis(1,1-dimethylethyl) N-{[3-({[(2,4,6-trimethylphenyl)amino]carbonyl}amino)-2-naphthalenyl]carbonyl}-L-aspartate] showed an IC50 of 5080 nM.
`Cc1cc(C)c(NC(=O)Nc2cc3ccccc3cc2C(=O)N[C@@H](CC(=O)O)C(=O)O)c(C)c1` [Example 354, N-{[3-({[(2,4,6-trimethylphenyl)amino]carbonyl}amino)-2-naphthalenyl]carbonyl}-L-aspartic acid] came in with an IC50 of 61 nM.
On to `O=C(O)C[C@H](NC(=O)c1cc2ccccc2cc1NC(=O)Nc1c(Cl)cc(OC(F)(F)F)cc1Cl)C(=O)O` [Example 355, N-[(3-{[({2,6-dichloro-4-[(trifluoromethyl)oxy]phenyl}amino)carbonyl]amino}-2-naphthalenyl)carbonyl]-L-aspartic acid], for which the IC50 was determined as 14 nM.
As for `Cc1cc(C)c(NC(=O)Nc2cc3ccccc3cc2C(=O)N[C@H](CC(=O)O)C(=O)O)c(C)c1` [Example 356, N-{[3-({[(2,4,6-trimethylphenyl)amino]carbonyl}amino)-2-naphthalenyl]carbonyl}-D-aspartic acid], the figure is 100 nM.
As for `Cc1cc(C)c(NC(=O)Nc2cc3ccccc3cc2C(=O)N2CCC[C@@H]2C(=O)O)c(C)c1` [Example 357, 1-{[3-({[(2,4,6-trimethylphenyl)amino]carbonyl}amino)-2-naphthalenyl]carbonyl}-D-proline], the figure is 2470 nM.
As for `Cc1cc(C)c(NC(=O)Nc2cc3ccccc3cc2C(=O)N[C@H](C(=O)O)[C@H]2CCCC(O)C2)c(C)c1` (stereo partly drawn) [Example 359, (2S)-[(1S)-3-hydroxycyclohexyl]({[3-({[(2,4,6-trimethylphenyl)amino]carbonyl}amino)-2-naphthalenyl]carbonyl}amino)ethanoic acid], the figure is 6 nM; as for `Cc1cc(C)c(NC(=O)Nc2cc3ccccc3cc2C(=O)N[C@H](C(=O)O)[C@H]2CCCC(OC(=O)C(F)(F)F)C2)c(C)c1` (stereo partly drawn) [Example 360, (2S)-{(1S)-3-[(trifluoroacetyl)oxy]cyclohexyl}({[3-({[(2,4,6-trimethylphenyl)amino]carbonyl}amino)-2-naphthalenyl]carbonyl}amino)ethanoic acid], 11 nM.
`COc1ccc(-c2ccc(C(=O)N[C@@H](CC(=O)OC(C)(C)C)C(=O)OC(C)(C)C)c(NC(=O)Nc3c(C)cc(C)cc3C)c2)cc1` [Example 361, bis(1,1-dimethylethyl) N-{[4′-(methyloxy)-3-({[(2,4,6-trimethylphenyl)amino]carbonyl}amino)-4-biphenylyl]carbonyl}-L-aspartate] came in with an IC50 of 6070 nM.
For `COc1ccc(-c2ccc(C(=O)N[C@@H](CC(=O)O)C(=O)O)c(NC(=O)Nc3c(C)cc(C)cc3C)c2)cc1` [Example 362, N-{[4′-(methyloxy)-3-({[(2,4,6-trimethylphenyl)amino]carbonyl}amino)-4-biphenylyl]carbonyl}-L-aspartic acid] the value was 6 nM.
`CCOC(=O)C[C@H](NC(=O)c1cc2ccccc2cc1NC(=O)Nc1c(C)cc(C)cc1C)C(=O)O` [Example 363, (2S)-4-(ethyloxy)-4-oxo-2-({[3-({[(2,4,6-trimethylphenyl)amino]carbonyl}amino)-2-naphthalenyl]carbonyl}amino)butanoic acid] registered an IC50 of 360 nM. This IC50 is about 60-fold higher than that of the compound before.
As for `O=C(O)C[C@H](NC(=O)c1ccc(F)cc1NC(=O)Nc1c(Cl)cccc1Cl)C(=O)O` [Example 364, N-{[2-({[(2,6-dichlorophenyl)amino]carbonyl}amino)-4-fluorophenyl]carbonyl}-L-aspartic acid], the figure is 1280 nM; as for `Cc1cc(C)c(NC(=O)Nc2cc(F)ccc2C(=O)N[C@@H](CC(=O)O)C(=O)O)c(C)c1` [Example 365, N-{[4-fluoro-2-({[(2,4,6-trimethylphenyl)amino]carbonyl}amino)phenyl]carbonyl}-L-aspartic acid], 1680 nM.
As for `CCOC(=O)C[C@H](NC(=O)c1ccc(-c2ccc(OC)cc2)cc1NC(=O)Nc1c(C)cc(C)cc1C)C(=O)OCc1ccccc1` [Example 366, 4-ethyl 1-(phenylmethyl)N-{[4′-(methyloxy)-3-({[(2,4,6-trimethylphenyl)amino]carbonyl}amino)-4-biphenylyl]carbonyl}-L-aspartate], the figure is 11100 nM.
